Experimental data as given in patent US7247630B2, “Uses of tricyclic compounds” (Cell Therapeutics, Inc., priority 2000, dated 2007).

Columns and labels:
[1] = system: IL-12 induced Th1 differentiation; test: IL-12 dependent in vitro T-helper cell (Th1) differentiation assay; format: cell-based; conditions: 168 h, inhibition of IL-12 induced Th1 differentiation as defined by IFN-γ production upon secondary stimulation with anti-CD3 alone, splenic T cells, anti-CD3 and 5 U/ml IL-12, seven days
Description: This example illustrates the inventive compounds' ability to suppress Th1 differentiation in vitro by blocking IL-12 signaling. Each of compounds [A through Y] were tested in an IL-12 dependent in vitro T-helper cell differentiation assay as described in LeGross et al., J. Exp. Med., 172:921-929 (1990). Recombinant IL-12 was used to induce Th1 differentiation. Splenic T cells were purified utilizing the antibodies RA3-3A1/6.1 (anti-B220), J11d and MAR18.5 (anti-rat kappa chain) to deplete the B cells by magnetic bead separation, as described in Coon et al, J. Immuno., 163:6567-6574 (1989). Splenic T cells were stimulated at 5×10^5/ml with insoluble anti-CD3 alone (145-2C11, Pharmingen, San Diego, Calif.), or anti-CD3 and 5 U/ml IL-12, with and without each inventive compound. After seven days, equal numbers of viable cells were restimulated for 24 hours with anti-CD3 without the inventive compounds, and the supernatants were collected and assayed for IFN-γ production. IFN-γ and IL-4 levels were measured by ELISA test specific for IFN-γ and IL-4.
Th1 differentiation was induced by culturing anti-CD3 stimulated T cells in the presence of exogenous IL-12. […] It was observed that the presence of the tested compounds during T cell activation inhibited Th1 differentiation, which had been enhanced by the addition of exogenous IL-12. The values in the “IC50 μM” column were determined by measuring the inhibition of IL-12 induced Th1 differentiation as defined by IFN-γ production upon secondary stimulation with anti-CD3 alone. None of the compounds affected the viability or recovery of T cells after one week of culture

[2] = system: IL-4 induced T2 differentiation; test: T2 differentiation assay (T0 cells stimulated in the presence of IL-4); format: cell-based; conditions: for IC50: T0 cells stimulated in the presence of IL-4, IL-4 secretion as readout; for IL-4 production of resulting effector cells / activation and proliferation of resulting effector cells: T0 cells stimulated in the presence of IL-4 and compound
Description: (R)-7,8-Dihydro-3-(5-hydroxyhexyl)-1-methyl-1H-imidazo[2,1-f]-purine-2,4(3H,6H)-dione (CT-13430) (see Example 1) and (R)-3-(5-Hydroxyhexyl)-1-methyl-6,7,8,9-tetrahydro-pyrimido[2,1-f]purine-2,4(1H,3H)-dione (CT-13431) (see Example 4) were tested to determine their ability to block the differentiation of T0 cells to T2 effectors as judged by their relative inability to secrete the canonical T2 effector cytokine, IL-4, following treatment with the compounds. In a series of experiments analogous to the T1 differentiation assay of Example 10 (in which T0 cells were induced to become T1 effectors by polyclonal stimulation in the presence of IL-12), the above compounds were effective in a T2 differentiation assay in which T0 cells are stimulated in the presence of IL-4, which affects T2 differentiation.

Structure (SMILES)	IC50 [1] [µM]	IC50 [2] [µM]	IL-4 production of resulting effector cells [2]	activation and proliferation of resulting effector cells [2]
C[C@@H](O)CCCCn1c(=O)c2c(nc3n2CCS3)n(C)c1=O [compound 13421, (R)-6,7-Dihydro-3-(5-hydroxyhexyl)-1-methyl-thiazolo[2,3-f]purine-2,4 (1H,3H)-dione]	33			
C[C@@H](O)CCCCn1c(=O)c2c(nc3n2CCN3)n(C)c1=O [compound 13430, (R)-7,8-Dihydro-3-(5-hydroxyhexyl)-1-methyl-1H-imidazo[2,1-f]-purine-2,4(3H,6H)-dione]	17	14	deficient in IL-4 production	proliferated normally
C[C@@H](O)CCCCn1c(=O)c2c(nc3n2CCCN3)n(C)c1=O [compound 13431, (R)-3-(5-Hydroxyhexyl)-1-methyl-6,7,8,9-tetrahydro-pyrimido[2,1-f]purine-2,4(1H,3H)-dione]	11	13	deficient in IL-4 production	proliferated normally
C[C@@H](O)CCCCn1c(=O)c2c(nc3n2CCNC3)n(C)c1=O [compound 30099, (R)-3-(5-hydroxyhexyl)-1-methyl-6,7,8,9-tetrahydro-pyrazino[2,1-f]purine-2,4(1H,3H)-dione]	22			
C[C@@H](C#N)CCCCn1c(=O)c2c(nc3n2CCCN3)n(C)c1=O [compound 30146, (R)-3-(5-cyanohexyl)-1-methyl-6,7,8,9-tetrahydro-pyrimido[2,1-f]purine-2,4(1H,3H)-dione]	14			
C[C@@H](C#N)CCCCn1c(=O)c2c(nc3n2CCN3)n(C)c1=O [compound 30255, (R)-3-(5-Cyanohexyl)-7,8-dihydro-1-methyl-1H-imidazo[2,1-f]-purine-2,4(3H,6H)-dione]	16			
CC(=O)N1CCn2c1nc1c2c(=O)n(CCCC[C@H](C)O)c(=O)n1C [compound 30256]	24			
CC(=O)N1CCn2c1nc1c2c(=O)n(CCCC[C@@H](C)N)c(=O)n1C [compound 30259]	15			
CC(=O)N1CCn2c1nc1c2c(=O)n(CCCC[C@@H](C)O)c(=O)n1C [compound 30260, (R)-3-(5-Hydroxyhexyl)-1-methyl-6,7-dihydro-2,4-dioxo-8-N-acetyl-1H-imidazo[2,1-f]-purine]	9			
C[C@@H](CCCCn1c(=O)c2c(nc3n2CCCN3C)n(C)c1=O)N(C)C [compound 30262]	34			
C[C@H](N)CCCCn1c(=O)c2c(nc3n2CCCN3)n(C)c1=O [compound 30263]	90			
C[C@@H](CCCCn1c(=O)c2c(nc3n2CCCN3)n(C)c1=O)N(C)C [compound 30264]	39			
C[C@H](CCCCn1c(=O)c2c(nc3n2CCCN3)n(C)c1=O)N(C)C [compound 30267]	34			
C[C@@H](O)CCCCn1c(=O)c2nc3n(c2n(C)c1=O)CCN3 [compound 30268, (R)-3-(5-hydroxyhexyl)-1-methyl-1,6,7,8-tetrahydro-2H-imidazo[1,2-e]-purine-2,4(3H)-dione]	20			
C[C@H](O)CCCCn1c(=O)c2c(nc3n2CCCN3)n(C)c1=O [compound 30269]	53			
